Reference: patent US20100105081A1, “DETECTING FUNGI IN HUMAN SAMPLES” (MAYO MEDICAL VENTURES, priority 2004, published 2010)

Test system: Alternaria
Assay: Total Alternaria polypeptides in nasal secretions of CRS patients before and after treatment (competitive immunoassay)
Assay type: in vivo, human
Settings: nasal secretion supernatants, change from baseline after treatment, N=6, paired samples
Procedure: Nasal secretions were obtained under endoscopic guidance using a sterile sinus secretion collector (Xomed Surgical Produces, Jacksonville, Fla.) from CRS patients before and after treatment with either placebo or amphotericin B. Each secretion specimen was extracted by adding twice the volume of 0.9% NaCl, vortexing, and centrifugation. The supernatants were stored at −20° C. To monitor changes in fungal antigen burden with treatment, total Alternaria polypeptides in nasal secretions were immunochemically quantitated essentially as described for latex polypeptides. Briefly, samples and a standard extract from Alternaria alternata competed with solid-phase Alternaria alternata polypeptides for rabbit anti-Alternaria IgG antibodies (ALK-Abello, Round Rock, Tex.). Radiolabeled, affinity-purified, goat anti-rabbit IgG was used for detection. The results are expressed as mass polypeptide per mL nasal secretion supernatants. The detection limit of the assay was 12 ng/mL for total Alternaria polypeptides. Sufficient quantities of mucus were not available to perform all the assays for each patient. The analyses were performed based on the availability of paired samples.

C[C@@H]1[C@H](O)[C@@H](C)/C=C/C=C/C=C/C=C/C=C/C=C/C=C/[C@H](O[C@@H]2O[C@H](C)[C@@H](O)[C@H](N)[C@@H]2O)C[C@@H]2O[C@](O)(C[C@@H](O)C[C@@H](O)[C@H](O)CC[C@@H](O)C[C@@H](O)CC(=O)O[C@H]1C)C[C@H](O)[C@H]2C(=O)O [Amphotericin B, amphotericin B]
Alternaria μg/mL, median change after treatment: -0.30 µg/mL
Alternaria μg/mL, range for change after treatment: -4.64 to 3.21 µg/mL
